{"source": "paper PMC7213079", "about": "“Hit Identification of New Potent PqsR Antagonists as Inhibitors of Quorum Sensing in Planktonic and Biofilm Grown Pseudomonas aeruginosa” (Frontiers in Chemistry, 2020)", "key": {"PAO1-L mCTX::PpqsA-lux": {"system": "PAO1-L mCTX::PpqsA-lux", "test": "PpqsA-lux bioreporter assay, strain PAO1-L", "type": "cell-based, Pseudomonas aeruginosa", "settings": "Pseudomonas aeruginosa, PAO1, read-out: IC50 PAO1-L", "method": "In silico virtual screening was performed on the PqsR ligand binding domain (LBD) crystal structure [PDB: 4JVI; (Ilangovan et al., [2013])] using the University of Nottingham Managed Chemical Compound Collection (MCCC) containing 85,061 compounds. Molecular docking was performed using both the OpenEye docking (OpenEye Scientific Software Inc. (Hawkins et al., [2007]) and Schrödinger Suite for molecular modeling (Friesner et al., [2004]; Halgren et al., [2004]). A cut off value of the docking score function was set to -9.0 and the resulting high scoring compounds were further examined (Friesner et al., [2004]; Halgren et al., [2004]). This gave a library of around 500 diverse molecules that were evaluated using in vitro screening in a P. aeruginosa PAO1-L mCTX::PPqsA-lux reporter assay (Diggle et al., [2011]).\nTo inform the structural variation of 7, crystal structures with the endogenous ligand [4-hydroxy-2-heptylquinoline (NHQ)] and the inhibitor M64 were used (Ilangovan et al., [2013]; Kitao et al., [2018]). The PqsR LBD is dominated by lipophilic interactions, therefore the current SAR exploration mainly focused on varying the aromatic tail substituents and examining the effect of 8-position substitution. The rationale for these modifications was primarily based on molecular docking studies that provided insights into the mode of binding of 7 and approaches intended to improve potency. The substituent at the para- position of the aromatic ring appeared to be crucial for biological activity due to the vital π-π stacking interaction of this group with Tyr^258. […] These strains emit light upon activation of PqsR by the endogenous production of these signal molecules. […] The results of the SAR in this assay highlight the importance of testing any prospective anti-virulence strategy on multiple genetically distinct P. aeruginosa strains as a means to reduce the chance of failure at both pre-clinical and clinical stages (Freschi et al., [2015]).\nPAO1-L Wild type PAO1, Lausanne subline. B.\nPAO1-L mCTX::PpqsA- PAO1-L with chromosomal mini-CTX::PpqsA-lux (Soukarieh lux insertion; TcR et al., 2018) […]\nmini-CTX::PpqsA-lux R6K-based mini-CTX suicide plasmid for the (Diggle et chromosomal insertion of a PpqsA-lux al., 2007) transcriptional reporter fusion; TcR\nBiosensor reporter assay:\nStrains PA14 mCTX::PpqsA-lux and PAO1-L mCTX::PpqsA-lux were constructed using plasmid mini-CTX::PpqsA-lux as previously described (Diggle et al., 2007) and the assay was performed according to published procedures (Fletcher et al., 2007). For screening, the compounds were tested at 10 µM concentration which was prepared from 10 mM stock in DMSO. […]"}, "PA14": {"system": "PA14", "test": "AQ (HHQ, PQS) quantification by LC-MS/MS in planktonic cultures, PA14", "type": "cell-based, Pseudomonas aeruginosa", "settings": "3 x IC50", "method": "Since PqsR controls expression of the pqsABCDE operon encoding the enzymes required for different stages of AQ biosynthesis, quantification of HHQ, and PQS provides a direct measurement for inhibition of the biosynthetic pathway. Compound 40 was evaluated for its effect on AQ biosynthesis at a concentration three times the corresponding IC50 values for PAO1-L and PA14.\nFigure 5 Effect of compound 40 on AQ production: Quantification of AQ concentrations after treatment with the PqsR inhibitor 40 at 3x IC50 value for PAO1-L and PA14 each strain. The graph represents the average of three independent experiments carried out in triplicate (n = 9) for both strains.\nFor each test sample, 100µl of sterile filtered supernatant (the same preparation as for pyocyanin) was spiked with 10µl of an internal standard solution (10µM d4-PQS in MeOH), and diluted with water to a total volume of 500µl. […]\nscreening of the LC eluent for specific AQ analytes. Where chromatographic peaks for HHQ and PQS were detected, a peak area was determined and analyte peak area/internal standard peak area calculated.\nAQ quantification in biofilm cultures: […]\nFor this experiment, the P. aeruginosa PAO1-L strain and M9 minimal medi um were used. […] The supernatant was col lected and the AQ extraction and quantification were performed following the LC MS/MS protocol described above . […]"}}, "data": [{"smiles": "Cn1c2ccccc2c2nnc(SCC(=O)Nc3ccc(Oc4ccccn4)cc3)nc21", "note": "[Compound 40, 2-((5-Methyl-5H-[1,2,4]triazino[5,6-b]indol-3-yl)thio)-N-(4-(pyridin-2-yloxy)phenyl)acetamide]", "values": [{"measurement": "IC50", "setting": "PAO1-L mCTX::PpqsA-lux", "value": "250 ± 120", "unit": "nM"}, {"measurement": "production of HHQ and PQS", "setting": "PA14", "value": "substantially reduce"}]}]}
